Assay results: patent US7022843B1, “β,β′-dihydroxy meso-substituted chlorins, isobacteriochlorins, and bacteriochlorins” (priority 1999, dated 2006)
Values joined by “and” are separate entries in the source; they are usually repeats but may differ in a detail not shown here. Equal values may be shown once. Read-outs that look alike come from different tables or passages of the source.

Columns and labels:
L1210 cells [1] = experiment: Phototoxicity in L1210 cells, MTT viability assay; type: cell-based; settings: for LD50: phototoxicity, L1210 cells
Procedure: The above described compounds were tested in vitro for phototoxicity and dark toxicity in L1210 cells as described in the Example section below. Twenty four compounds which were tested for cytotoxicity are listed in Table 3 below along with BPD-MA.
(§1) Phototoxicity was determined with L11210 cells in the presence of the compound as follows: the L1210 cells were exposed to varying concentrations of the compounds in 96-well microtiter plates for one hour at 37° C. and 5% CO2. No fetal calf serum (FCS) was added at this time. The plate was then illuminated for one hour after which a 10% aqueous FCS solution was added to the wells. The plates were then returned to the CO2 incubator overnight. After incubation, the cells were assayed for viability using the MTT assay (Mossman, T. J. Immunol. Meth. 1983, 65, 55).

L1210 cells [2] = experiment: Dark cytotoxicity in L1210 cells (plates wrapped in aluminum foil); type: cell-based
Procedure: The above compounds were also tested for dark toxicity. Dark toxicity refers to the toxicity of the drug to cells in the absence of light. This toxicity is, therefore, not due to singlet oxygen mediated cellular damage.
as §1
Dark cytotoxicity was determined while the plates were wrapped in aluminum foil while under the light source.

[3] = 1 h exposure without FCS, 1 h illumination, MTT

Compound	LD50 (L1210 cells [1]; [3])	LD50 (L1210 cells [1]; Table 4)	LD50dark (L1210 cells [2])	LD20dark (L1210 cells [2]; L1210 cells, absence of light)	times more potent than BPD-MA (L1210 cells [1]; fold potency based on LD50)	times more potent than HpD (L1210 cells [1]; fold potency based on LD50)	times more potent than Photofrin™ (L1210 cells [1]; fold potency based on LD50)	LD50 (L1210 cells [1]; 1 h exposure without FCS, 1 h illumination, MTT, listed as diphenyl-2,3-dihydroxychlorin)	LD50dark (L1210 cells [2]; L1210 cells, absence of light)
OC1c2nc(c(-c3ccc(Br)cc3)c3ccc([nH]3)c(-c3ccc(Br)cc3)c3nc(c(-c4ccc(Br)cc4)c4ccc([nH]4)c2-c2ccc(Br)cc2)C=C3)C1O (centres unmarked) [Compound 5, T(p-Br)PC(OH)2]	6.22 M and 6000 ng/mL	6000 ng/mL	8000 ng/mL	1900 ng/mL					
OC1c2nc(c(-c3c(F)c(F)c(F)c(F)c3F)c3ccc([nH]3)c(-c3c(F)c(F)c(F)c(F)c3F)c3nc(c(-c4c(F)c(F)c(F)c(F)c4F)c4ccc([nH]4)c2-c2c(F)c(F)c(F)c(F)c2F)C=C3)C1O (centres unmarked) [Compound 9, TF5PC(OH)2]	1.79 M and 1800 ng/mL	100 ng/mL	12000 ng/mL	5000 ng/mL					
T(p-OCOEt)PC(OH)2 [Compound 13]		1000 ng/mL	20000 ng/mL	8000 ng/mL					
COc1cc(-c2c3nc(c(-c4ccc(O)c(OC)c4)c4ccc([nH]4)c(-c4ccc(O)c(OC)c4)c4nc(c(-c5ccc(O)c(OC)c5)c5ccc2[nH]5)C(O)C4O)C=C3)ccc1O (centres unmarked) [Compound 17, T(m-OCH3,p-OH)PC(OH)2]	0.0361 M and 30 ng/mL	30 ng/mL	4500 ng/mL	500 ng/mL					
Oc1cccc(-c2c3nc(c(-c4cccc(O)c4)c4ccc([nH]4)c(-c4cccc(O)c4)c4nc(c(-c5cccc(O)c5)c5ccc2[nH]5)C(O)C4O)C=C3)c1 (centres unmarked) [Compound 11, T(m-OH)PC(OH)2]	0.0211 M and 15 ng/mL	15 ng/mL	12500 ng/mL	10000 ng/mL					
O=[N+]([O-])c1ccc(-c2c3nc(c(-c4ccccc4)c4ccc([nH]4)c(-c4ccccc4)c4nc(c(-c5ccccc5)c5ccc2[nH]5)C=C4)C(O)C3O)cc1 (stereo not drawn) [Compound 28, meso-5-(p-nitrophenyl)-10,15,20-triphenyl-2,3-dihydroxychlorin]	2.42 M and 2000 ng/mL	2000 ng/mL	18000 ng/mL	2000 ng/mL					
Oc1ccc(-c2c3nc(c(-c4ccc(O)cc4)c4ccc([nH]4)c(-c4ccc(O)cc4)c4nc(c(-c5ccc(O)cc5)c5ccc2[nH]5)C(O)C4O)C=C3)cc1 (centres unmarked) [Compound 10, T(p-OH)PC(OH)2]	4.92 M and 3500 ng/mL	3500 ng/mL	15000 ng/mL	5000 ng/mL					
Oc1ccc(-c2c3nc(c(-c4ccccc4)c4ccc([nH]4)c(-c4ccccc4)c4nc(c(-c5ccccc5)c5ccc2[nH]5)C=C4)C(O)C3O)cc1 (stereo not drawn) [Compound 27, meso-5-(p-hydroxyphenyl)-10,15,20-triphenyl-2,3-dihydroxychlorin]	0.0211 M and 14 ng/mL	14 ng/mL	9000 ng/mL	2000 ng/mL					
OC1c2nc(c(-c3ccccc3)c3ccc([nH]3)c(-c3ccccc3)c3nc(c(-c4ccccc4)c4ccc([nH]4)c2-c2ccccc2)C(O)C3O)C1O (centres unmarked) [Compound 29, H2TPB(OH)4]	1.03 M and 700 ng/mL	700 ng/mL	7500 ng/mL	2500 ng/mL					
OC1c2nc(c(-c3cccc(F)c3)c3ccc([nH]3)c(-c3cccc(F)c3)c3nc(c(-c4cccc(F)c4)c4ccc([nH]4)c2-c2cccc(F)c2)C=C3)C1O (centres unmarked) [Compound 7, T(m-F)PC(OH)2]	6.87 M and 5000 ng/mL	5000 ng/mL	6000 ng/mL	1500 ng/mL					
OC1c2cc3ccc([nH]3)c(-c3ccccc3)c3nc(cc4ccc([nH]4)c(-c4ccccc4)c(n2)C1O)C=C3 (centres unmarked) [Compound 25, diphenyl-2,3-dihydroxychlorin]	0.0024 M and 1.2 ng/mL	1.2 ng/mL	5000 ng/mL	1500 ng/mL	10	700	450	1.2 ng/mL	
OC1c2nc(c(-c3cccc(Br)c3)c3ccc([nH]3)c(-c3cccc(Br)c3)c3nc(c(-c4cccc(Br)c4)c4ccc([nH]4)c2-c2cccc(Br)c2)C=C3)C1O (centres unmarked) [Compound 6, T(m-Br)PC(OH)2]	4.15 M and 4000 ng/mL	4000 ng/mL	4000 ng/mL	1500 ng/mL					
COc1cc(-c2c3nc(c(-c4cc(OC)c(OC)c(OC)c4)c4ccc([nH]4)c(-c4cc(OC)c(OC)c(OC)c4)c4nc(c(-c5cc(OC)c(OC)c(OC)c5)c5ccc2[nH]5)C(O)C4O)C=C3)cc(OC)c1OC (centres unmarked) [Compound 18, T(m,p,m′-OCH3)PC(OH)2]	0.0198 M and 20 ng/mL	20 ng/mL	20000 ng/mL	7500 ng/mL					
Cc1ccc(-c2c3nc(c(-c4ccc(C)cc4)c4ccc([nH]4)c(-c4ccc(C)cc4)c4nc(c(-c5ccc(C)cc5)c5ccc2[nH]5)C(O)C4O)C=C3)cc1 (centres unmarked) [Compound 21, T(p-CH3)PC(OH)2]	9.94 M and 7000 ng/mL	7000 ng/mL	15000 ng/mL	5000 ng/mL					
O=[N+]([O-])c1cccc(-c2c3nc(c(-c4cccc([N+](=O)[O-])c4)c4ccc([nH]4)c(-c4cccc([N+](=O)[O-])c4)c4nc(c(-c5cccc([N+](=O)[O-])c5)c5ccc2[nH]5)C(O)C4O)C=C3)c1 (centres unmarked) [Compound 4, T(m-NO2)PC(OH)2]	5.43 M and 4500 ng/mL	4500 ng/mL	15000 ng/mL	4500 ng/mL					
O=S(=O)(O)c1ccc(-c2c3nc(c(-c4ccc(S(=O)(=O)O)cc4)c4ccc([nH]4)c(-c4ccc(S(=O)(=O)O)cc4)c4nc(c(-c5ccc(S(=O)(=O)O)cc5)c5ccc2[nH]5)C(O)C4O)C=C3)cc1 (centres unmarked) [Compound 23, T(p-SO3H)PC(OH)2]	1.11 M and 1000 ng/mL	1000 ng/mL	>>20000 ng/mL	>20000 ng/mL					
OC1c2nc(c(-c3ccccc3)c3ccc([nH]3)c(-c3ccccc3)c3nc(c(-c4ccccc4)c4ccc([nH]4)c2-c2ccccc2)C=C3)C1O (centres unmarked) [Compound 3, H2TPC(OH)2]	2.78 M and 1800 ng/mL	1800 ng/mL	19000 ng/mL	7000 ng/mL					
COC(=O)c1ccc(-c2c3nc(c(-c4ccc(C(=O)OC)cc4)c4ccc([nH]4)c(-c4ccc(C(=O)OC)cc4)c4nc(c(-c5ccc(C(=O)OC)cc5)c5ccc2[nH]5)C(O)C4O)C=C3)cc1 (centres unmarked) [Compound 12, T(p-CO2Me)PC(OH)2]	0.136 M and 120 ng/mL	120 ng/mL		3000 ng/mL					15000 ng/mL
OC1c2nc(c(-c3ccccc3F)c3ccc([nH]3)c(-c3ccccc3F)c3nc(c(-c4ccccc4F)c4ccc([nH]4)c2-c2ccccc2F)C=C3)C1O (centres unmarked) [Compound 8, T(o-F)PC(OH)2]	4.17 M and 3000 ng/mL	3000 ng/mL	15000 ng/mL	5000 ng/mL					
T(p-OCH3)PC(OH)2 [Compound 14]	7.81 M and 6000 ng/mL	6000 ng/mL	>20000 ng/mL	9000 ng/mL					
CC(C)(C)c1ccc(-c2c3nc(c(-c4ccc(C(C)(C)C)cc4)c4ccc([nH]4)c(-c4ccc(C(C)(C)C)cc4)c4nc(c(-c5ccc(C(C)(C)C)cc5)c5ccc2[nH]5)C(O)C4O)C=C3)cc1 (centres unmarked) [Compound 24, T(p-t-Bu)PC(OH)2]	6.88 M and 6000 ng/mL	6000 ng/mL	7000 ng/mL	2000 ng/mL					
COc1cc(OC)c(-c2c3nc(c(-c4c(OC)cc(OC)cc4OC)c4ccc([nH]4)c(-c4c(OC)cc(OC)cc4OC)c4nc(c(-c5c(OC)cc(OC)cc5OC)c5ccc2[nH]5)C(O)C4O)C(O)C3O)c(OC)c1 (centres unmarked) [Compound 30, T(o,p,o′-OCH3)PB(OH)4]	18 ng/mL	18 ng/mL	18000 ng/mL	1200 ng/mL					
COc1cccc(-c2c3nc(c(-c4cccc(OC)c4)c4ccc([nH]4)c(-c4cccc(OC)c4)c4nc(c(-c5cccc(OC)c5)c5ccc2[nH]5)C(O)C4O)C=C3)c1 (centres unmarked) [Compound 15, T(m-OCH3)PC(OH)2]	1.3 M and 1000 ng/mL								
